# Results reported in patent US11136370B2, “Compositions and methods for thrombin generation assay” (The Scripps Research Institute, priority 2016, dated 2021).
# Entries after “also recorded” stand apart in the source; their conditions may differ.
# Legend:
# FVIII = FVIII activation in rTF/FVIIa-initiated reactions with FX, prothrombin, FVIII, FV (immunoblot); details: thrombin blocked with 4 μM DAPA
# Experimental: Quantification of generated FVIIIa-A1 calibrated with known quantities of the fragment. (B) FVIIIa activity calculated from FXa generation in reactions as in (A), but with 10 nM FIXa added and incubated for 180 s at 37° C. (n=4-12). FXa generation depend-ent on FVIIIa-FIXa activity was calculated by subtracting FXa generated by FVIIa and FIXa added individually from that by FVIIa/FIXa added together. (C) FVIIIa activity generated and calculated in reaction as in (A, B) but with the addition of 10 nM TFPIα. Results in A (bottom), B and C—shown as 25th-75th percentile bars, min-to-max whiskers, line at the median; or min-to-max floating bars with line at the mean when n≤3—were analyzed by ANOVA/Tukey tests. ***P<0.001; NS, not significant.
# Reactions in 50 mM Tris-buffered saline, pH 7.4, with 0.1% bovine serum albumin included 0.7 nM FVIII, 3 nM FV, 135 nM FX and 1 μM prothrombin without/with 4 μM DAPA. TFPI and other inhibitors were added as indicated. […] After quenching the reaction with 10 mM EDTA, generated FXa was measured with S-2765 (180 μM). FVIIIa procoagulant activity was measured as FIXa-dependent FXa generation; FVIIIa procoagulant activity generated by the nascent TF-FVIIa-FXa complex was calculated by subtracting the amount of FXa produced in reactions initiated by FVIIa and FIXa individually from that produced in reactions initiated by FVIIa/FIXa combined. […]
# thrombin generation (TG) = type: biochemical, human; details: recalcified PRP containing CTI
# Experimental: TG in PRP or reconstituted PRP was evaluated as known to those skilled in the art. Native PRP was prepared from blood collected into final 12.9 mM trisodium citrate by centrifugation at 250 g for 10 min at 25° C. The platelet count was adjusted to 180×10^3/μl by dilution with homologous PPP obtained by centrifuging PRP for 10 min at 1,500 g. CTI was added at 30-50 μg/ml depending on calibrated potency as assessed by FXIIa inhibition. Reconstituted PRP was prepared with washed platelets prepared from normal PRP by adding ⅕th volume of acid citrate-dextrose (71 mM citric acid, 85 mM trisodium citrate, and 111 mM dextrose, pH 4.5) and 5 U/ml apyrase; following centrifugation at 1,500 g for 10 minutes at 25° C., the platelet pellet was resuspended into PPP lacking FVII (George King Bio-Medical) or FIX (Haematologic Technologies) to give a final platelet count of 180·103/μl PRP was mixed with varying concentrations of rTF and/or 20 pM FIXa in 96-well microtiter plates. The reaction was started by adding 18 mM CaCl2 with 360 μM of the thrombin substrate benzyloxycarbonyl-glycyl-glycyl-L-arginine coupled to the fluorogenic group 7-amido-4-methylcoumarin (Gly-Gly-Arg-AMC; Bachem Americas, Torrance, Calif.). Fluorescence was measured continuously at 37° C. for up to 40 min in a spectrofluorometer (355/460 nm excitation/emission). The rate of fluorescence intensity increase as a function of time (dF/dt) was calculated with Turbo Delphi 2006 (Borland Software Corporation, Austin, Tex.) and converted to thrombin-equivalent concentration (nM) using a calibration curve. The endogenous thrombin potential (ETP) of samples, i.e. total generated thrombin activity, was determined from the area under the TG curve. When specified, TG was measured with a discontinuous 2-stage assay with a detection limit of 5 pM. For this, TG was induced by 0.15 pM rTF and 18 mM CaCl2 in reconstituted FVII-deficient PRP including 30 μg/ml CTI with 400 pM WT FVIIa or iFVIIa without or with 20 pM FIXa. After incubation for up to 11 min at 37° C., reactions were terminated by adding 20 mM EDTA and generated thrombin was measured using the highly sensitive thrombin substrate H-D-CHA-Ala-Arg-AMC.2AcOH (Pefafluor TH, Pentapharm, Basel, Switzerland) at 50 μM concentration. In other experiments, TG was induced by TFiFVIIa-FXa-TFPI or TF-iFVIIa-FXa-NAPc2. These stable complexes were pre-formed by incubating 5 nM FXa, 10 nM TF, 10 nM iFVIIa and 40 nM TFPI or NAPc2 in the presence of 2.5 mM CaCl2 for 2 min at 37° C. Complexes were added into FVII-deficient PRP, followed by incubation for 8 min at 37° C.
# PRP was prepared from blood collected into trisodium citrate (final concentration 0.0129 M) by centrifugation for at 250 g for 10 min at 25° C.; the platelet count was adjusted at 180.103 per μl by diluting with homologous platelet-poor plasma (PPP) obtained by centrifuging PRP for an additional 10 min at 1,500 g. When indicated, CTI was added at 30 to 50 μg/ml depending on calibrated potency measured by FXIIa inhibition. Reconstituted PRP was prepared by adding normal washed platelets into PPP (without or with CTI) lacking FVII, FVIII (both from George King Bio-Medical, Overland Park, Kans.) or FIX (Haematologic Technologies). […] generation in PRP was measured as described by Hemker et al. 53 μl of PRP was mixed in 96-well microtiter plates with 15 μl of a solution containing rTF and/or one of the intrinsic coagulation pathway proteases—FXIIa, FXIa or FIXa—to achieve the indicated final concentrations. Antibodies or inhibitors were also added at this point at the concentration indicated for each specific case. The reaction was started by adding between 15 and 20 μl of 100 mM CaCl2 and 2 mM fluorogenic substrate, benzyloxycarbonyl-glycyl-glycyl-L-arginine-7-amido-4-methylcoumarin (Gly-Gly-Arg-AMC; Bachem Americas, Torrance, Calif.).
# [1] = tested on: fibrillar collagen type I; assay: Blood perfusion over fibrillar collagen type I, volume of platelet aggregates and fibrin; type: cell-based, human; details: blood of treated patients, collagen surface
# Experimental: The volume of platelet aggregates and deposited fibrin was measured by confocal microscopy. Statistical analysis by one-way ANOVA and Tukey post-test. *P<0.05; **P<0.01; ***P<0.001.
# Glass coverslips treated with 0.2 mg/ml poly-L-lysine for 6 h at 37° C. were coated with rTF for 18-20 hours at 37° C. or 2.5 mg/ml acid-insoluble type I collagen for 2 hours at 22-25° C. Then they were rinsed with pH 7.4 buffered-saline, assembled in a rectangular flow chamber with a 125 μm-high silicon gasket and positioned on a confocal microscope stage for analysis. Venous blood for testing was collected into final 10.9 mM trisodium citrate using a plastic syringe for normal volunteers or Vacutainer tubes (Becton Dickinson, Buccinasco, Milan) for patients and controls. Before perfusion at a flow rate yielding an initial wall shear rate of 300 s^−1 maintained with a syringe pump (Harvard Apparatus, Holliston, Mass.), CaCl2 was added to obtain 1.29 mM Ca^2+. In the blood of patients—potentially hypercoagulable—and related controls, lepirudin (50 nM) was also added to neutralize thrombin possibly generated before testing. […] For experiments with WT and mutant FVIIa, cells from group O citrated blood, containing 50 μg/ml CTI and 10 U/ml (ADPase activity) apyrase, were washed free of plasma by sequential centrifugation steps at 1500 g for 7 min. After the first, plasma was replaced with an equal volume of calcium-free Tyrode buffer, pH 6.5, with 5 U/ml apyrase; then with buffer and 1.25 U/ml apyrase; and finally with human FVII deficient plasma (George King Bio-Medical, Overland Park, Kans.) up to the original blood volume. […] Experiments in Milan (Italy) were performed with a Leica TCS SP5 microscope and HCX PL APO 63x/1.40 NA oil immersion objective (Leica Microsystems GmbH, Wetzlar, Germany); in La Jolla (California) with a Zeiss Axiovert 135M/LSM 410 and Plan-Apochromat 40x/1.40 NA oil immersion objective (Carl Zeiss AG, Oberkochen, Germany).
# Platelets adhering and aggregating onto the surface were visualized by adding quinacrine-HCl (mepacrine; 10 μg/ml; Sigma-Aldrich) to blood. Deposited fibrin was visualized with Alexa Fluor 546-labeled (Invitrogen) mouse monoclonal IgG (50 μg/ml) specific for the B chain of mouse and human fibrin (HB-8545; ATCC). […] This was followed by buffer (DMEM) for 2 minutes to facilitate fibrin quantification by confocal z section analysis using a Zeiss Axiovert 135M/LSM 410 microscope (Carl Zeiss) and Plan-Apochromat×63/1.40 NA oil immersion objective. […] Deposited fibrin volume was measured from confocal sections collected at 4 preset positions in the flow chamber. Total volume of deposited platelets and fibrin was calculated from the sum of the respective area coverage per section multiplied by the z interval (2 μm). […]
# immobilized rTF = assay: Blood perfusion over immobilized rTF, volume of platelet aggregates and fibrin; type: cell-based, human
# Experimental: Glass coverslips treated with 0.2 mg/ml poly-L-lysine for 6 h at 37° C. were coated with rTF for 18-20 hours at 37° C. or 2.5 mg/ml acid-insoluble type I collagen for 2 hours at 22-25° C. Then they were rinsed with pH 7.4 buffered-saline, assembled in a rectangular flow chamber with a 125 μm-high silicon gasket and positioned on a confocal microscope stage for analysis. Venous blood for testing was collected into final 10.9 mM trisodium citrate using a plastic syringe for normal volunteers or Vacutainer tubes (Becton Dickinson, Buccinasco, Milan) for patients and controls. Before perfusion at a flow rate yielding an initial wall shear rate of 300 s^−1 maintained with a syringe pump (Harvard Apparatus, Holliston, Mass.), CaCl2 was added to obtain 1.29 mM Ca^2+. In the blood of patients—potentially hypercoagulable—and related controls, lepirudin (50 nM) was also added to neutralize thrombin possibly generated before testing. […] For experiments with WT and mutant FVIIa, cells from group O citrated blood, containing 50 μg/ml CTI and 10 U/ml (ADPase activity) apyrase, were washed free of plasma by sequential centrifugation steps at 1500 g for 7 min. After the first, plasma was replaced with an equal volume of calcium-free Tyrode buffer, pH 6.5, with 5 U/ml apyrase; then with buffer and 1.25 U/ml apyrase; and finally with human FVII deficient plasma (George King Bio-Medical, Overland Park, Kans.) up to the original blood volume. Cell count results in reconstituted and native blood were within 90%. Experiments in Milan (Italy) were performed with a Leica TCS SP5 microscope and HCX PL APO 63x/1.40 NA oil immersion objective (Leica Microsystems GmbH, Wetzlar, Germany); in La Jolla (California) with a Zeiss Axiovert 135M/LSM 410 and Plan-Apochromat 40x/1.40 NA oil immersion objective (Carl Zeiss AG, Oberkochen, Germany).
# Platelets adhering and aggregating onto the surface were visualized by adding quinacrine-HCl (mepacrine; 10 μg/ml; Sigma-Aldrich) to blood. Deposited fibrin was visualized with Alexa Fluor 546-labeled (Invitrogen) mouse monoclonal IgG (50 μg/ml) specific for the B chain of mouse and human fibrin (HB-8545; ATCC). Blood was perfused for 3-5 min at 37° C. with a syringe pump (Harvard Apparatus Inc.) at a flow rate yielding an initial (in the unobstructed flow path) wall shear rate of 300 s^−1. This was followed by buffer (DMEM) for 2 minutes to facilitate fibrin quantification by confocal z section analysis using a Zeiss Axiovert 135M/LSM 410 microscope (Carl Zeiss) and Plan-Apochromat×63/1.40 NA oil immersion objective. Image analysis was performed with NIH ImageJ64. Deposited fibrin volume was measured from confocal sections collected at 4 preset positions in the flow chamber. Total volume of deposited platelets and fibrin was calculated from the sum of the respective area coverage per section multiplied by the z interval (2 μm). All studies involving human subjects were conducted following institutionally approved protocols.
# TF-coated glass coverslips were perfused with venous blood at a wall shear rate of 300 s^−1. A Zeiss Axiovert 135M/LSM 410 and Plan-Apochromat 40x/1.40 NA oil immersion objective (Carl Zeiss AG, Oberkochen, Germany) was used to visualize platelets/leukocytes and fibrin stained with mepacrine and a specific anti-body, respectively. Image analysis to calculate volumes was performed as described herein.
# Glass coverslips treated with 0.2 mg/ml poly-L-lysine for 6 h at 37° C. were coated with rTF for 18-20 hours at 37° C., rinsed with buffered-saline and assembled in a rectangular flow chamber with a 125 μm-high silicon gasket. Venous blood was collected into final 10.9 mM trisodium citrate using a plastic syringe. CaCl2 was added to obtain 1.29 mM Ca^2+ before perfusion at a wall shear rate of 300 s-1 maintained with a syringe pump (Harvard Apparatus, Holliston, Mass.). […]
# initial TG = assay: Discontinuous 2-stage assay of initial TG in platelet-poor plasma; type: biochemical, human
# Experimental: FIG. 21 illustrates, in accordance with embodiments herein, TG assays in FVIII-deficient PPP without or with anti-FVIII inhibitors. (A) Initial TG in discontinuous 2-stage assay was induced by adding 150 fM rTF/200 pM FIXa and 5 μM PL, followed by incubation for 5 min at 37° C. Each column indicates mean+SEM (n=3) of generated FIIa. (B) Comparison of dose-response curve of added FVIII in TG in FVIII-deficient plasma by discontinuous 2-stage assay with that by continuous assay.
# FIG. 22 illustrates, in accordance with embodiments herein, FVIIIa-dependent and -independent TG in plasma from Coumadin-treated patients. FVIIIa-dependent TG was induced by adding 150 fM rTF/200 pM FIXa with 1.3 μM PL, while FVIIIa-independent TG was by 1.2 pM rTF with 1.3 μM PL. Each column indicates mean+SEM (n=3) of generated FIIa after 3 min of incubation.
# To establish highly sensitive TG assay method, the inventors made a screening of FIIa substrates with high affinity and turnover rate by determining kinetic parameters and then constructed a calibration curve with known concentrations of a FIIa calibrator. In the studies, they found two fluorogenic substrates H-D-cyclohexyl-alanyl-alanyl-argininyl-amidomethylcoumarin (AMC) (Pefafluor TH) and butyloxycarbonyl-valyl-prolinyl-argininyl-AMC (V-P-R-AMC) were suitable for quantifying much low concentrations of FIIa activity with a detection limit of ˜5 pM (FIG. 17). Initial TG was measured with “discontinuous 2-stage assay” using the high sensitive substrate. Briefly, TG was initiated by combined addition of rTF and FIXa with 18 mM CaCl2 into plasma, followed by incubation for up to 5 min at 37° C. After incubation, reactions were terminated with 20 mM EDTA and generated FIIa was measured using the highly sensitive FIIa substrate Pefafluor TH or V-P-R-AMC. In the assays, combined addition of 150 fM rTF and 200 pM FIXa time-dependently produced FIIa in normal platelet-poor plasma (PPP) prepared from healthy donors (FIG. 18A). […] To further validate the assay method, reproducibility of the TG assay method was examined by determination of intra-assay and inter-assay coefficient of variations (CV) using manual assay protocol.
# TF-FVIIa = assay: FXa generation by TF-FVIIa in reactions with purified components; type: biochemical, human; details: reconstituted system
compound,measurement,setting,value
"CCC1CCN(C(=O)C(CCCN=C(N)N)NS(=O)(=O)c2cccc3c(N(C)C)cccc23)CC1 (centres unmarked) [DAPA, dansylarginine N-(3-ethyl-1,5-pentanediyl)amide]",FVIIIa still detectable,FVIII,~15%
COc1ccc(-n2nc(C(N)=O)c3c2C(=O)N(c2ccc(N4CCCCC4=O)cc2)CC3)cc1 [apixaban],difference in dose response between rivaroxaban and apixaban,thrombin generation (TG),~3 fold
CC(=O)CC(c1ccccc1)c1c(O)c2ccccc2oc1=O (centres unmarked) [warfarin],mean volume of platelet aggregates vs controls,[1],not significantly different
same,volume of deposited fibrin vs controls,[1],significantly reduced; also recorded: markedly reduced
same,fibrin deposition,"immobilized rTF; blood of treated patients, high density TF surface",significantly reduced
same,volume of deposited fibrin,"immobilized rTF; blood of treated patients, higher rTF coating concentration, 300 s^-1, 5 min",markedly reduced fibrin formation
same,volume of deposited fibrin vs untreated controls,"immobilized rTF; blood of treated patients, lower rTF coating concentration, 300 s^-1, 5 min",markedly smaller
same,volume of platelet aggregates vs controls,"immobilized rTF; blood of treated patients, rTF coating 20 and 40 pM",significantly reduced on both rTF surfaces
same,FVIIIa-independent TG,"initial TG; 1.2 pM rTF alone without FIXa, patient plasma",abolished even at lower INR
same,initial FVIIIa-dependent TG,"initial TG; patient plasma with INR 1.5, 150 fM rTF/200 pM FIXa, 1.3 μM PL, 3 min",~15 % of normal plasma
same,initial FVIIIa-dependent TG,"initial TG; patient plasma with INR 2.9, 150 fM rTF/200 pM FIXa, 1.3 μM PL, 3 min",~5 % of normal plasma
same,initial FVIIIa-dependent TG,initial TG; patient plasma with much higher INR values,completely abolished
recombinant [Leu1-Thr2]-63-desulfohirudin [lepirudin],effect on deposited fibrin volume in the flow chamber,"immobilized rTF; lepirudin 50 nM, preliminary experiments",limited effect
TFPI with protein S: TFPI with protein S (PS) cofactor,reduction of FXa produced by TF-FVIIa,TF-FVIIa,> 75%
